Our source for the Ki values is BindingDB's records for doi:10.1124/mol.58.6.1601 (University of California Irvine, 2000).

Each structure is given as a SMILES string.

Experiment [1] addresses T1, Cysteinyl leukotriene receptor 1 (Homo sapiens, UniProt Q9Y271).
T1 sequence (Q9Y271 whole entry): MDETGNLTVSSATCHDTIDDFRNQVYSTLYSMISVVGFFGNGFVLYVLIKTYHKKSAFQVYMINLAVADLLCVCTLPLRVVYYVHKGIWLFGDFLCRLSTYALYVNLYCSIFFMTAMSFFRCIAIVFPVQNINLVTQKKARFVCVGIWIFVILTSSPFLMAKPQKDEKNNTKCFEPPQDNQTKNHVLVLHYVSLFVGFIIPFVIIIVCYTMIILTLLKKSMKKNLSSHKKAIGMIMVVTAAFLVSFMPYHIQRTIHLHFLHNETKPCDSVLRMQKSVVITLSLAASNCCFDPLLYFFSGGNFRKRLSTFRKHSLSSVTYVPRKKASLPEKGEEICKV

Experiment [2] deals with T2, Cysteinyl leukotriene receptor 2 (Homo sapiens, UniProt Q9NS75).
T2 sequence (Q9NS75 whole entry): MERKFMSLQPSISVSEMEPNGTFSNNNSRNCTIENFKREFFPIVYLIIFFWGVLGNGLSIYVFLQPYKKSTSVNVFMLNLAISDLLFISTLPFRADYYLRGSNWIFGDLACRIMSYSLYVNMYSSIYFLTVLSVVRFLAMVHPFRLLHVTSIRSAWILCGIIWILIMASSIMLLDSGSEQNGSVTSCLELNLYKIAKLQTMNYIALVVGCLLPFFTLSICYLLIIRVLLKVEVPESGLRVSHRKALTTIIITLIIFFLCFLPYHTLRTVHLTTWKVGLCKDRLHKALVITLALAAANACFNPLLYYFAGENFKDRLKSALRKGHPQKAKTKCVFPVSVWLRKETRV

For the molecule `CN(C)C(=O)CCSC(SCCC(=O)O)c1cccc(/C=C/c2ccc3ccc(Cl)cc3n2)c1` (stereo not drawn) [3-(((3-(2-(7-chloroquinoline-2-yl)ethenyl)phenyl)((3-dimethylamino-3-oxopropyl)thio)methyl)thio)propanoic acid], the Ki in experiment [1] was found to be 10.4 nM; in experiment [2], 1000 nM.

For `CCCCC/C=C\C/C=C/C=C/C=C/[C@@H](Sc1ccc(C(=O)O)cc1)[C@@H](O)CCCC(=O)O` [CAS_134733-55-4], the Ki in experiment [2] amounted to 300 nM. This counts as sub-micromolar.

As usually defined, the Ki is the equilibrium dissociation constant of an inhibitor or competing ligand from its target. The low end stands for higher affinity, the high end for lower affinity.
